Experimental data: PMC4911353, “Pharmacologic Inhibition of Host Phosphodiesterase-4 Improves Isoniazid-Mediated Clearance of Mycobacterium tuberculosis” (Frontiers in Immunology, 2016)

Test system: Mtb-infected mouse lungs
Assay: Genome-wide lung transcriptome (microarray, IPA network/GO analysis) of Mtb-infected mice
Format: in vivo
[1] = Canonical IFN signaling pathway

Structure (SMILES): CCOc1cc([C@@H](CS(C)(=O)=O)N2Cc3cccc(NC(=O)C4CC4)c3C2=O)ccc1OC [CC-11050, N-[2-[(1S)-1-(3-ethoxy-4-methoxyphenyl)-2-(methylsulfonyl)ethyl]-2,3-dihydro-3-oxo-1H-isoindol-4-yl]-(9Cl) cyclopropanecarboxamide]
- Number of SDEGs affected by more than 1.5-folds (14 days of treatment (29 upregulated and 18 downregulated)): 47
- Number of SDEGs relative to infected untreated animals (14 days of treatment, FDR 5%): 1,277
- BAK expression [1]: 0
- BAX expression [1]: 0
- DRIP150 expression [1]: 0
- IFI35 expression [1]: 0
- IFIT3 expression [1]: 0
- IFNAR2 expression [1]: 0
- IFNG expression [1]: 0
- IFNGRb expression [1]: -1.115
- IRF1 expression [1]: 0
- IRF9 expression [1]: 0
- JAK2 expression [1]: 0
- OAS1 expression [1]: 0
- PIAS1 expression [1]: 0
- PSMB8 expression [1]: 0
- SOCS1 expression [1]: 0
- STAT1 expression [1]: 0
- STAT2 expression [1]: 0
- TAP1 expression [1]: 0
- TC-PTP expression [1]: 0
- TYK2 expression [1]: 0
- ACTB expression (IL17 interaction network): 0
- CCL2 expression (IL17 interaction network): 0
- CCL5 expression (IL17 interaction network): 0
- CCL13 expression (IL17 interaction network): 0
- CSF2 expression (IL17 interaction network): 0
- EDIL3 expression (IL17 interaction network): 0
- ENTPD1 expression (IL17 interaction network): 1.149
- HMGB1 expression (IL17 interaction network): -1.135
- HSPB8 expression (IL17 interaction network): 1.322
- IFNG expression (IL17 interaction network): 0
- IL1B expression (IL17 interaction network): 0
- IL6 expression (IL17 interaction network): 0
- IL10 expression (IL17 interaction network): 0
- IL16 expression (IL17 interaction network): 0
- IL17A expression (IL17 interaction network): 0
- IL17D expression (IL17 interaction network): 0
- IL17F expression (IL17 interaction network): -1.184
- LTA expression (IL17 interaction network): 0
- MMP9 expression (IL17 interaction network): 0
- NOS2 expression (IL17 interaction network): 0
- PTGS2 expression (IL17 interaction network): 0
- RGS13 expression (IL17 interaction network): 0
- SELE expression (IL17 interaction network): 0
- STAT3 expression (IL17 interaction network): 0
- TIMP1 expression (IL17 interaction network): 0
- TLR4 expression (IL17 interaction network): 0
- TNF expression (IL17 interaction network): 0
- TRAF3IP2 expression (IL17 interaction network): 0
- TRAF6 expression (IL17 interaction network): 0
- VWF expression (IL17 interaction network): 0
- ABL1 expression (Lung inflammation network): 0
- ACO2 expression (Lung inflammation network): 0
- ACTB expression (Lung inflammation network): 0
- ADORA2A expression (Lung inflammation network): 0
- AGER expression (Lung inflammation network): 0
- AGTR1 expression (Lung inflammation network): 0
- AHR expression (Lung inflammation network): 0
- ALDH2 expression (Lung inflammation network): 0
- ANGPT1 expression (Lung inflammation network): 0
- ANXA3 expression (Lung inflammation network): 0
- ATF3 expression (Lung inflammation network): 0
- BAX expression (Lung inflammation network): 0
- BID expression (Lung inflammation network): 0
- BSG expression (Lung inflammation network): 0
- CASP1 expression (Lung inflammation network): 0
- CAV1 expression (Lung inflammation network): 0
- CBL expression (Lung inflammation network): 0
- CCL2 expression (Lung inflammation network): 0
- CCL5 expression (Lung inflammation network): 0
- CCR4 expression (Lung inflammation network): 0
- CCR5 expression (Lung inflammation network): 0
- CD4 expression (Lung inflammation network): 0
- CD14 expression (Lung inflammation network): 0
- CD40LG expression (Lung inflammation network): 0
- CD44 expression (Lung inflammation network): 0
- CD86 expression (Lung inflammation network): 0
- CD200 expression (Lung inflammation network): 0
- CIITA expression (Lung inflammation network): 0
- CSF2RB expression (Lung inflammation network): 0
- CSF2 expression (Lung inflammation network): 0
- CSK expression (Lung inflammation network): 0
- CTLA4 expression (Lung inflammation network): 0
- CTSS expression (Lung inflammation network): 0
- CXCR3 expression (Lung inflammation network): 0
- CYBB expression (Lung inflammation network): 0
- CYLD expression (Lung inflammation network): 0
- Ccl6 expression (Lung inflammation network): 0
- Cd59a expression (Lung inflammation network): 0
- Cxcl15 expression (Lung inflammation network): 0
- E2F3 expression (Lung inflammation network): -1.343
- EDNRA expression (Lung inflammation network): 0
- EDNRB expression (Lung inflammation network): 1.235
- EIF2C2 expression (Lung inflammation network): 0
- ENTPD1 expression (Lung inflammation network): 1.149
- F2RL1 expression (Lung inflammation network): 0
- F10 expression (Lung inflammation network): 0
- FASLG expression (Lung inflammation network): 0
- FBN1 expression (Lung inflammation network): 0
- FCGR2B expression (Lung inflammation network): 0
- FCGRT expression (Lung inflammation network): 1.165
- FOXO3 expression (Lung inflammation network): 1.609
- HMGCR expression (Lung inflammation network): 0
- HRH1 expression (Lung inflammation network): 0
- HTT expression (Lung inflammation network): 0
- IFNG expression (Lung inflammation network): 0
- IFNGR2 expression (Lung inflammation network): -1.115
- IKBKB expression (Lung inflammation network): 0
- IKBKE expression (Lung inflammation network): 0
- IL1B expression (Lung inflammation network): 0
- IL1R1 expression (Lung inflammation network): 0
- IL2RG expression (Lung inflammation network): 0
- IL4R expression (Lung inflammation network): 0
- IL6 expression (Lung inflammation network): 0
- IL10 expression (Lung inflammation network): 0
- IL12B expression (Lung inflammation network): 0
- IL15RA expression (Lung inflammation network): 0
- IL16 expression (Lung inflammation network): 0
- IL17RB expression (Lung inflammation network): 0
- IL18 expression (Lung inflammation network): 0
- ITGB6 expression (Lung inflammation network): 0
- ITGBL1 expression (Lung inflammation network): 0
- ITK expression (Lung inflammation network): 0
- KIT expression (Lung inflammation network): 0
- LAT expression (Lung inflammation network): 0
- LCP2 expression (Lung inflammation network): 0
- LGALS1 expression (Lung inflammation network): 0
- LIF expression (Lung inflammation network): -1.187
- LTA expression (Lung inflammation network): 0
- MAP3K14 expression (Lung inflammation network): 0
- MARK2 expression (Lung inflammation network): 0
- MGAT5 expression (Lung inflammation network): 0
- MKL2 expression (Lung inflammation network): 0
- MMP9 expression (Lung inflammation network): 0
- MMP14 expression (Lung inflammation network): 0
- NCF1 expression (Lung inflammation network): 0
- NEO1 expression (Lung inflammation network): 0
- NFATC2 expression (Lung inflammation network): 0
- NFKB1 expression (Lung inflammation network): 0
- NLRP3 expression (Lung inflammation network): 0
- NOD1 expression (Lung inflammation network): 0
- NOD2 expression (Lung inflammation network): 0
- NOS2 expression (Lung inflammation network): 0
- NQO1 expression (Lung inflammation network): 0
- NQO2 expression (Lung inflammation network): 0
- NT5E expression (Lung inflammation network): 0
- PDE5A expression (Lung inflammation network): 0
- PDGFRA expression (Lung inflammation network): 0
- PDGFRB expression (Lung inflammation network): 0
- PLA2G4A expression (Lung inflammation network): 0
- PLAU expression (Lung inflammation network): 0
- PTAFR expression (Lung inflammation network): 0
- PTEN expression (Lung inflammation network): 1.12
- PTGS2 expression (Lung inflammation network): 0
- PTPN6 expression (Lung inflammation network): 0
- PTPRC expression (Lung inflammation network): 0
- RELB expression (Lung inflammation network): 0
- S100A4 expression (Lung inflammation network): 0
- SELE expression (Lung inflammation network): 0
- SFTPA1 expression (Lung inflammation network): 1.126
- SFTPD expression (Lung inflammation network): 0
- SLC6A2 expression (Lung inflammation network): 0
- SOCS1 expression (Lung inflammation network): 0
- SPI1 expression (Lung inflammation network): 0
- SPP1 expression (Lung inflammation network): 0
- STAT1 expression (Lung inflammation network): 0
- TFPI expression (Lung inflammation network): 1.241
